Legend:
EGFR = EGFR (Homo sapiens, UniProt P00533); test: In vitro inhibition of EGFR, Flash Plate or glass-fiber filter technology (C2); type: biochemical; parameters: 0.5 μg EGFR-kinase domain/well; conditions: EGFR-kinase domain, 5.0 μM unlabeled ATP, read-out: Kinase activity.(C2): pIC50 (converted)
Experimental: The in vitro inhibition of EGFR was assessed using either the Flash Plate technology or the glass-fiber filter technology as described by Davies, S. P. et al., Biochem J. (2000), 351; p. 95-105. The Flash Plate technology is generally described by B. A. Brown et al. in High Throughput Screening (1997), p. 317-328. Editor(s): Devlin, John P. Publisher: Dekker, New York, N.Y.
In the Flash Plate EGFR kinase reaction assay, a kinase substrate consisting of biotinylated poly(L-glutamic acid-L-tyrosine) (poly(GT)biotin), is incubated with the aforementioned protein in the presence of (^33P) radiolabeled ATP. (^33P) phosphorylation of the substrate is subsequently measured as light energy emitted using a streptavidin-coated Flash Plate (PerkinElmer Life Sciences) by trapping and quantifying the binding of the biotin tagged and radiolabeled substrate.
The EGFR kinase reaction is performed at 30° C. for 60 minutes in a 96-well microtiter FlashPlate (PerkinElmer Life Sciences). For each of the tested compounds a full dose response 1·10^−6M to 1·10^−10M has been performed. IRESSA° and Tarceva™ (erlotinib) were used as reference compounds. The 100 μl reaction volume contains 54.5 mM TrisHCl pH 8.0, 10 mM MgCl2, 100 μM Na3VO4, 5.0 μM unlabeled ATP, 1 mM DTT, 0.009% BSA, 0.8 μCi AT^33P, 0.35 μg/well poly(GT)biotin and 0.5 μg EGFR-kinase domain/well.
The reaction is stopped by aspirating the reaction mixture and washing the plate 3× with 200 μl wash/stop buffer (PBS+100 mM EDTA). After the final wash step 200 μl of wash/stop buffer was added to each well and the amount of phosphorylated (^33P) Poly(GT)biotin determined by counting (30 sec/well) in a microtiterplate scintillation counter.
In the glass-fiber filter technology EGFR kinase reaction assay, a kinase substrate consisting of poly(L-glutamic acid-L-tyrosine) (poly(GT)), is incubated with the aforementioned protein in the presence of (^33P) radiolabeled ATP. (^33P) Phosporylation of the substrate is subsequently measured as radioactivity bound on a glassfiber-filter.
The EGFR kinase reaction is performed at 25° C. for 10 minutes in a 96-well microtiterplate. For each of the tested compounds a full dose response 1·10^−6M to 1·10^−10M has been performed. IRESSA° and Tarceva™ (erlotinib) were used as reference compounds. The 25 μl reaction volume contains 60 mM TrisHCl pH 7.5, 3 mM MgCl2, 3 mM Mn Cl2, 3 μM Na3VO4, 50 μg/ml PEG20000, 5.0 μM unlabeled ATP, 1 mM DTT, 0.1 μCi AT^33P, 62.5 ng/well poly(GT) and 0.5 μg EGFR-kinase domain/well.
The reaction is stopped by adding 5 μl of a 3% phosphoric acid solution. 10 μl of the reaction mixture is then spotted onto a Filtermat A filter (Wallac) and washed 3 times for 5 min. in 75 mM phosphoric acid and 1 time for 5 min. in methanol prior to drying and quantification on the Typhoon (Amersham) using a LE phosphorage storage screen.

SKOV3 cells = test: Serum starved proliferation assay on the ovarian carcinoma SKOV3 cells (C3); type: cell-based; conditions: Homo sapiens, SK-OV-3, 72 h, EGF stimulated (100 ng/ml, 72 hours, serum free) or 72 hours with compounds; MTT cell viability assay; read-out: SKOV3 cell (C3): pIC50 (converted)
How it was run: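 MTT viability read-out in SKOV3 cells after a 24 h pre-incubation in 10% FCS, in one of two formats. EGF-stimulated version: serum-free compound exposure followed by 100 ng/ml EGF (final) for 72 h at 37 °C, 5% CO2. Otherwise, compound alone for 72 h.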

Chain of EGFR (P00533 712-979 limits assumed): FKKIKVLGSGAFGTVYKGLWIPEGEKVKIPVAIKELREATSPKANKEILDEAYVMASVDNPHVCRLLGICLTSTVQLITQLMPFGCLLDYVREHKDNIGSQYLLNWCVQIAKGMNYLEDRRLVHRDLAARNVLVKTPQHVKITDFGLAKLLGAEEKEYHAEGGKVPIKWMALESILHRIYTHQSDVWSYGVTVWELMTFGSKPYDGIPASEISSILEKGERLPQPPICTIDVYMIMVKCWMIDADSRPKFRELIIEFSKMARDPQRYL

Row | SMILES | IC50 (EGFR) | IC50 (SKOV3 cells)
1 | COc1cc2ncnc3c2cc1OCC(=O)NC(C)C(=O)NCCc1ccc(Cl)cc1N3 (centres unmarked) [Compound 119, 4,6-ethanediylidene-8H-pyrimido[4,5-b][6,1,9,12]benzoxatriazacyclohexadecine-9,12-dione, 18-chloro-10,11,13,14,15,20-hexahydro-21-methoxy-11-methyl-] | 1000 nM | 1580 nM
2 | COc1cc2ncnc3c2cc1OCC(=O)NC(C)C(=O)NCc1ccc(Cl)cc1N3 (centres unmarked) [Compound 120, 4,6-ethanediylidenepyrimido[4,5-b][6,1,9,12]benzoxatriazacyclopentadecine-9,12(8H,13H)-dione, 17-chloro-10,11,14,19-tetrahydro-20-methoxy-11-methyl-] | 2000 nM | 1000 nM
3 | COc1cc2ncnc3c2cc1OCC(=O)NC(Cc1ccccc1)C(=O)NCc1ccc(Cl)cc1N3 (centres unmarked) [Compound 122, 4,6-ethanediylidenepyrimido[4,5-b][6,1,9,12]benzoxatriazacyclopentadecine-9,12(8H,13H)-dione, 17-chloro-10,11,14,19-tetrahydro-20-methoxy-11-(phenylmethyl)-] | 398 nM | 10000 nM
4 | COc1cc2ncnc3c2cc1OCC(=O)N1CCCC1C(=O)NCc1ccccc1N3 (centres unmarked) [Compound 125, 9,11-ethanediylidenepyrimido[4,5-b]pyrrolo[1,2-i][6,1,9,12]benzoxatriazacyclopentadecine-14,19(5H,13H)-dione, 16,17,18,18a,20,21-hexahydro-22-methoxy-] | 7940 nM | 10000 nM
5 | COc1cc2ncnc3c2cc1OCC(=O)N1CCCC1C(=O)NCc1ccc(Cl)cc1N3 (centres unmarked) [Compound 126, 9,11-ethanediylidenepyrimido[4,5-b]pyrrolo[1,2-i][6,1,9,12]benzoxatriazacyclopentadecine-14,19(5H,13H)-dione, 3-chloro-16,17,18,18a,20,21-hexahydro-22-methoxy-] | 2000 nM | 2510 nM
6 | COc1cc2ncnc3c2cc1OCC(=O)NC(C(C)O)C(=O)NCc1ccc(Cl)cc1N3 (centres unmarked) [Compound 127, 4,6-ethanediylidenepyrimido[4,5-b][6,1,9,12]benzoxatriazacyclopentadecine-9,12(8H,13H)-dione, 17-chloro-10,11,14,19-tetrahydro-11-(1-hydroxyethyl)-20-methoxy-] | 251 nM | 1580 nM
7 | COc1cc2ncnc3c2cc1OCCCC(=O)NC(CO)C(=O)NCc1ccc(Cl)cc1N3 (centres unmarked) [Compound 130, 4,6-ethanediylidenepyrimido[4,5-b][6,1,11,14]benzoxatriazacycloheptadecine-11,14(8H,15H)-dione, 19-chloro-9,10,12,13,16,21-hexahydro-13-(hydroxymethyl)-22-methoxy-] | 25.1 nM | 126 nM
8 | COc1cc2ncnc3c2cc1OCCCCC(=O)NC(C)(C)C(=O)NCc1ccc(Cl)cc1N3 [Compound 137, 4,6-ethanediylidene-8H-pyrimido[4,5-b][6,1,12,15]benzoxatriazacyclooctadecine-12,15(16H)-dione, 20-chloro-9,10,11,13,14,17,22-heptahydro-23-methoxy-14,14-dimethyl-] | 251 nM | 251 nM

The remaining lines, values ahead:

Row | IC50 (EGFR) | IC50 (SKOV3 cells) | SMILES
9 | 200 nM | 3980 nM | COc1cc2ncnc3c2cc1OCCCCCNCCN(C)Cc1ccc(Cl)cc1N3 [Compound 117, 4,6-ethanediylidene-8H-pyrimido[4,5-b][6,1,12,15]benzoxatriazacyclooctadecine, 20-chloro-9,10,11,12,13,14,15,16,17,22-decahydro-23-methoxy-16-methyl-]
10 | 2510 nM | 10000 nM | COc1cc2ncnc3c2cc1OCC(=O)NC(C(C)C)C(=O)NCc1ccc(Cl)cc1N3 (centres unmarked) [Compound 121, 4,6-ethanediylidenepyrimido[4,5-b][6,1,9,12]benzoxatriazacyclopentadecine-9,12(8H,13H)-dione, 17-chloro-10,11,14,19-tetrahydro-20-methoxy-11-(1-methylethyl)-]
11 | 6310 nM | 10000 nM | COc1cc2ncnc3c2cc1OCC(=O)NC(C)C(=O)NCc1ccccc1N3 (centres unmarked) [Compound 123, 4,6-ethanediylidenepyrimido[4,5-b][6,1,9,12]benzoxatriazacyclopentadecine-9,12(8H,13H)-dione, 10,11,14,19-tetrahydro-20-methoxy-11-methyl-]
12 | 10 nM | 200 nM | CCC(C)C1NC(=O)CCCOc2cc3c(ncnc3cc2OC)Nc2cc(Cl)ccc2CNC1=O (centres unmarked) [Compound 128, 4,6-ethanediylidenepyrimido[4,5-b][6,1,11,14]benzoxatriazacycloheptadecine-11,14(8H,15H)-dione, 19-chloro-9,10,12,13,16,21-hexahydro-22-methoxy-13-(1-methylpropyl)-]
13 | 1580 nM | 3980 nM | COc1cc2ncnc3c2cc1OCC(=O)NC(CO)C(=O)NCc1ccc(Cl)cc1N3 (centres unmarked) [Compound 129, 4,6-ethanediylidenepyrimido[4,5-b][6,1,9,12]benzoxatriazacyclopentadecine-9,12(8H,13H)-dione, 17-chloro-10,11,14,19-tetrahydro-11-(hydroxymethyl)-20-methoxy-]
14 | 25.1 nM | 100 nM | COc1cc2ncnc3c2cc1OCCCC(=O)NC(C)C(=O)NCc1ccc(Cl)cc1N3 (centres unmarked) [Compound 131, 4,6-ethanediylidenepyrimido[4,5-b][6,1,11,14]benzoxatriazacycloheptadecine-11,14(8H,15H)-dione, 19-chloro-9,10,12,13,16,21-hexahydro-22-methoxy-13-methyl-]
15 | 1580 nM | 7940 nM | COc1cc2ncnc3c2cc1OCC(=O)N1CC(O)CC1C(=O)NCc1ccc(Cl)cc1N3 (centres unmarked) [Compound 133, 9,11-ethanediylidenepyrimido[4,5-b]pyrrolo[1,2-i][6,1,9,12]benzoxatriazacyclopentadecine-14,19(5H,13H)-dione, 3-chloro-16,17,18,18a,20,21-hexahydro-17-hydroxy-22-methoxy-]
16 | 398 nM | 794 nM | COc1cc2ncnc3c2cc1OCCCCC(=O)N1CCCC1C(=O)NCc1ccc(Cl)cc1N3 (centres unmarked) [Compound 134, 4,6-ethanediylidene-8H-pyrimido[4,5-b]pyrrolo[1,2-l][6,1,12,15]benzoxatriazacyclooctadecine-12,17(18H)-dione, 22-chloro-9,10,11,14,15,16,16a,19,24-nonahydro-25-methoxy-]
17 | 3980 nM | 1000 nM | COc1cc2ncnc3c2cc1OCC(=O)NC(C)(C)C(=O)NCCc1ccc(Cl)cc1N3 [Compound 135, 4,6-ethanediylidene-8H-pyrimido[4,5-b][6,1,9,12]benzoxatriazacyclohexadecine-9,12-dione, 18-chloro-10,11,13,14,15,20-hexahydro-21-methoxy-11,11-dimethyl-]
18 | 631 nM | 251 nM | COc1cc2ncnc3c2cc1OCCCCC(=O)NC(CC(C)C)C(=O)NCc1ccc(Cl)cc1N3 (centres unmarked) [Compound 136, 4,6-ethanediylidene-8H-pyrimido[4,5-b][6,1,12,15]benzoxatriazacyclooctadecine-12,15(16H)-dione, 20-chloro-9,10,11,13,14,17,22-heptahydro-23-methoxy-14-(2-methylpropyl)-]
19 | 2000 nM | 631 nM | COc1cc2ncnc3c2cc1OCCCCC(=O)NC(Cc1ccccc1)C(=O)NCc1ccc(Cl)cc1N3 (centres unmarked) [Compound 138, 4,6-ethanediylidene-8H-pyrimido[4,5-b][6,1,12,15]benzoxatriazacyclooctadecine-12,15(16H)-dione, 20-chloro-9,10,11,13,14,17,22-heptahydro-23-methoxy-14-(phenylmethyl)-]
